Laboratory results reported in patent publication US8772343B2, “Chemical compounds” (Pfizer Limited, priority 2010, dated 2014).
Counter-ions that a name gives are not always drawn.

These compounds were tested against T1, Nav1.7 (or SCN9A) channel (Homo sapiens, UniProt Q15858) (assay: Nav1.7 PatchXpress automated whole-cell electrophysiology in HEK cells expressing hSCN9A). Conditions: estimated IC50 from single point data, PatchXpress assay, held at V1/2 of inactivation, read-out: Nav1.7 EIC50.
T1 construct: expressed in transfected cells
Format: cell-based
Protocol: The ability of the compounds of formula (I) to block the Nav1.7 (or SCN9A) channel were measured using the assay described below.
Human Embryonic Kidney (HEK) cells were transfected with an hSCN9A construct using lipofectamine reagent (Invitrogen), using standard techniques. Cells stably expressing the hSCN9A constructs were identified by their resistance to G-418 (400 μg/ml). Clones were screened for expression using the whole-cell voltage-clamp technique.
HEK cells stably transfected with hSCN9A were maintained in DMEM medium supplemented with 10% heat-inactivated fetal bovine serum and 400 μg/ml G-418 in an incubator at 37° C. with a humidified atmosphere of 10% CO2. For HTS, cells were harvested from flasks by trypsinization and replated in an appropriate multi-well plate (typically 96 or 384 wells/plate) such that confluence would be achieved within 24 hours of plating. For electrophysiological studies, cells were removed from the culture flask by brief trypsinization and re-plated at low density onto glass cover slips. Cells were typically used for electrophysiological experiments within 24 to 72 hours after plating.
Cover slips containing HEK cells expressing hSCN9A were placed in a bath on the stage of an inverted microscope and perfused (approximately 1 ml/minutes) with extracellular solution of the following composition: 138 mM NaCl, 2 mM CaCl2, 5.4 mM KCl, 1 mM MgCl2, 10 mM glucose, and 10 mM HEPES, pH 7.4, with NaOH. […] The osmolarity of the extracellular and intracellular solutions was 300 mOsm/kg and 295 mOsm/kg, respectively. All recordings were made at room temperature (22-24° C.) using AXOPATCH 200B amplifiers and PCLAMP software (Axon Instruments, Burlingame, Calif.).
hSCN9A currents in HEK cells were measured using the whole-cell configuration of the patch-clamp technique (Hamill et al., 1981). Uncompensated series resistance was typically 2 to 5 mega ohms and >85% series resistance compensation was routinely achieved. As a result, voltage errors were negligible and no correction was applied. Current records were acquired at 20 to 50 KHz and filtered at 5 to 10 KHz.
HEK cells stably transfected with hSCN9A were viewed under Hoffman contrast optics and placed in front of an array of flow pipes emitting either control or compound-containing extracellular solutions. All compounds were dissolved in dimethyl sulfoxide to make 10 mM stock solutions, which were then diluted into extracellular solution to attain the final concentrations desired. […] The voltage-dependence of inactivation was determined by applying a series of depolarizing prepulses (8 sec long in 10 mV increments) from a negative holding potential. The voltage was then immediately stepped to 0 mV to assess the magnitude of the sodium current. Currents elicited at 0 mV were plotted as a function of prepulse potential to allow estimation of the voltage at which 50% of the channels were inactivated (midpoint of inactivation or V1/2). Compounds were tested for their ability to inhibit hSCN9A sodium channels by activating the channel with a 20 msec voltage step to 0 mV following an 8 second conditioning prepulse to the empirically determined V1/2. Compound effect (% inhibition) was determined by difference in current amplitude before and after application of test compounds. For ease of comparison, “estimated IC-50” (EIC50) values were calculated from single point electrophysiology data by the following equation, (tested concentration, uM)×(100-% inhibition/% inhibition). Inhibition values<20% and >80% were excluded from the calculation.
Electrophysiological assays were conducted with PatchXpress 7000 hardware and associated software (Molecular Devices Corp). All assay buffers and solutions were identical to those used in conventional whole-cell voltage clamp experiments described above. hSCN9A cells were grown as above to 50%-80% confluency and harvested by trypsinization. […]

T1 sequence (Q15858 whole entry): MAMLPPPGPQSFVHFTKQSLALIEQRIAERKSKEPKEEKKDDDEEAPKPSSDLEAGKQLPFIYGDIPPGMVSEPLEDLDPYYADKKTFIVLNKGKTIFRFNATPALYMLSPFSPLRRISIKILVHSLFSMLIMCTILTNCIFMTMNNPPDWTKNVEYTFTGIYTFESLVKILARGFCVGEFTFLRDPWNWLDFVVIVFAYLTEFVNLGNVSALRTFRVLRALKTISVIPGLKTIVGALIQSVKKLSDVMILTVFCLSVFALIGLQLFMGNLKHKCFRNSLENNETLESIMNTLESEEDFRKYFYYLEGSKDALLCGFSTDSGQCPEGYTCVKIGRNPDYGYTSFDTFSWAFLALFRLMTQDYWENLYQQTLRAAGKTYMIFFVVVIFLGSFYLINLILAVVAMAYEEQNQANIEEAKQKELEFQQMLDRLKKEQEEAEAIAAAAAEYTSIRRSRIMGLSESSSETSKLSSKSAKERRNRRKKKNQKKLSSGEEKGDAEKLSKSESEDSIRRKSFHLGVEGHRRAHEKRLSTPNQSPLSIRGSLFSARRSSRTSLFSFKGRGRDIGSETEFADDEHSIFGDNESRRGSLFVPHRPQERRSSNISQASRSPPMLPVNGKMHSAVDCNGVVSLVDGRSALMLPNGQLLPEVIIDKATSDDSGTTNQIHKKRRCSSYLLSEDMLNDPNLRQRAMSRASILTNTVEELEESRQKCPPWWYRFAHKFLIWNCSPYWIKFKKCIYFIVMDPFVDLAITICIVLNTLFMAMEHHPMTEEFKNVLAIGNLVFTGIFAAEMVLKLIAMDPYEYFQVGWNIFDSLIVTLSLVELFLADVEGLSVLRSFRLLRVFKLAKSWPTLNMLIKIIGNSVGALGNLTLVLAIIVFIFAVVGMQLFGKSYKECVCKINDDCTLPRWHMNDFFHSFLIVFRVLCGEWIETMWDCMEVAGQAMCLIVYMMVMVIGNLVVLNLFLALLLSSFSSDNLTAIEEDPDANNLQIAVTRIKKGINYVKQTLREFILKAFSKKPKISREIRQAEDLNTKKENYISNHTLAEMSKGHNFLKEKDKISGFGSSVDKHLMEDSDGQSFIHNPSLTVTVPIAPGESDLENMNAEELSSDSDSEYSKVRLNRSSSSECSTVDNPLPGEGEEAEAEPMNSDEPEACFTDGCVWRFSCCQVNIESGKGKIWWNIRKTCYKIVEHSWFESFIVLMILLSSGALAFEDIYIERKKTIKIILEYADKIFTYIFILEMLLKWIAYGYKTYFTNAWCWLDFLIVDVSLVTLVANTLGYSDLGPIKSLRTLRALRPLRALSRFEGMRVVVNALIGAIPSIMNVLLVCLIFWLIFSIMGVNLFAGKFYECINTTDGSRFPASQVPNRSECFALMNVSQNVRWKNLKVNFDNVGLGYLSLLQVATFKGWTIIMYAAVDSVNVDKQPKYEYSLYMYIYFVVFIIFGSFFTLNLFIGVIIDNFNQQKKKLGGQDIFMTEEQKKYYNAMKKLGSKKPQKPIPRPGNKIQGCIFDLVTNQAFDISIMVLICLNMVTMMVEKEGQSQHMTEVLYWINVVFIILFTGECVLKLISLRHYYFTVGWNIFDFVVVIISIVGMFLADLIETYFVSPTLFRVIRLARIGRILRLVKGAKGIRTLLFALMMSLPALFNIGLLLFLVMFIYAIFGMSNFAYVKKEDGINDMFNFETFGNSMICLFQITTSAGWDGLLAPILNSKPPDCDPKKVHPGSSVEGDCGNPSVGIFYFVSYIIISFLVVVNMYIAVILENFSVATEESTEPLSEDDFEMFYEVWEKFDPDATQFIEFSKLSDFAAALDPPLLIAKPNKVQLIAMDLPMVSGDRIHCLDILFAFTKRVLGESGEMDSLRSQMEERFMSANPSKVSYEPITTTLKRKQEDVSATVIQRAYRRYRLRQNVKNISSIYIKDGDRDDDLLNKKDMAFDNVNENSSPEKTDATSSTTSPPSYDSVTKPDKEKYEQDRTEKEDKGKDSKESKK

Structure (SMILES) | IC50
COc1cc(Cl)ccc1Oc1ccc(C(=O)NS(C)(=O)=O)cc1-c1cccnc1OC [Example 1, 4-(4-chloro-2-methoxyphenoxy)-3-(2-methoxypyridin-3-yl)-N-(methylsulfonyl)benzamide diethylamine salt] | 2.7 µM
COc1ncccc1-c1cc(C(=O)NS(C)(=O)=O)ccc1Oc1ccc(OCC(C)C)nc1 [Example 2, 4-[(6-isobutoxypyridin-3-yl)oxy]-3-(2-methoxypyridin-3-yl)-N-(methylsulfonyl)benzamide diethylamine salt] | 0.22 µM
COc1cccnc1-c1cc(C(=O)NS(C)(=O)=O)ccc1Oc1ccc(Cl)cc1 [Example 3, 4-(4-chlorophenoxy)-3-(3-methoxypyridin-2-yl)-N-(methylsulfonyl)benzamide] | 0.99 µM
COc1cc(Cl)ccc1Oc1cc(F)c(C(=O)NS(C)(=O)=O)cc1-c1cccnc1OC [Example 4, 4-(4-chloro-2-methoxyphenoxy)-2-fluoro-5-(2-methoxypyridin-3-yl)-N-(methylsulfonyl)benzamide] | 4.5 µM
COc1ncccc1-c1cc(C(=O)NS(C)(=O)=O)ccc1Oc1ccccc1 [Example 5, 3-(2-methoxypyridin-3-yl)-N-(methylsulfonyl)-4-phenoxybenzamide] | 0.9 µM
COc1ncccc1-c1cc(C(=O)NS(=O)(=O)C2CC2)ccc1Oc1ccccc1 [Example 6, N-(cyclopropylsulfonyl)-3-(2-methoxypyridin-3-yl)-4-phenoxybenzamide] | 1.3 µM
CS(=O)(=O)NC(=O)c1ccc(Oc2ccc(Cl)cc2)c(-c2cc[nH]n2)c1 [Example 10, 4-(4-Chlorophenoxy)-N-(methylsulfonyl)-3-(1H-pyrazol-3-yl)benzamide] | 0.94 µM
CCOc1ccc(-c2cc(C(=O)NS(C)(=O)=O)ccc2Oc2ccc(Cl)cc2)cc1 [Example 12, 6-(4-chlorophenoxy)-4′-ethoxy-N-(methylsulfonyl)-biphenyl-3-carboxamide] | 3.5 µM
Cc1n[nH]c(C)c1-c1cc(C(=O)NS(C)(=O)=O)ccc1Oc1ccc(Cl)cc1 [Example 14, 4-(4-chlorophenoxy)-3-(3,5-dimethyl-1H-pyrazol-4-yl)-N-(methylsulfonyl)benzamide] | > 3 µM
COc1ccc(-c2cc(C(=O)NS(C)(=O)=O)ccc2Oc2ccc(Cl)cc2)cn1 [Example 16, 4-(4-chlorophenoxy)-3-(6-methoxypyridin-3-yl)-N-(methylsulfonyl)benzamide] | 0.91 µM
CS(=O)(=O)NC(=O)c1ccc(Oc2ccc(Cl)cc2)c(-c2ccncc2)c1 [Example 21, 4-(4-chlorophenoxy)-N-(methylsulfonyl)-3-pyridin-4-ylbenzamide] | 4.6 µM
CS(=O)(=O)NC(=O)c1ccc(Oc2ccc(Cl)cc2)c(-c2cncnc2)c1 [Example 23, 4-(4-chlorophenoxy)-N-(methylsulfonyl)-3-pyrimidin-5-ylbenzamide] | 2.8 µM
Cn1nccc1-c1cc(C(=O)NS(C)(=O)=O)ccc1Oc1ccc(Cl)cc1 [Example 27, 4-(4-chlorophenoxy)-3-(1-methyl-1H-pyrazol-5-yl)-N-(methylsulfonyl)benzamide] | > 3 µM
Cc1cc(-c2cc(C(=O)NS(C)(=O)=O)ccc2Oc2ccc(Cl)cc2)ccn1 [Example 34, 4-(4-chlorophenoxy)-3-(2-methylpyridin-4-yl)-N-(methylsulfonyl)benzamide] | 8.6 µM
CS(=O)(=O)NC(=O)c1ccc(Oc2ccc(Cl)cc2)c(-c2ccccc2C(F)(F)F)c1 [Example 35, 6-(4-chlorophenoxy)-N-(methylsulfonyl)-2′-(trifluoromethyl)biphenyl-3-carboxamide] | 8 µM
COc1ncc(-c2cc(C(=O)NS(C)(=O)=O)ccc2Oc2ccc(Cl)cc2)cc1F [Example 36, 4-(4-chlorophenoxy)-3-(5-fluoro-6-methoxypyridin-3-yl)-N-(methylsulfonyl)benzamide] | 3.9 µM
Cc1ccc(-c2cc(C(=O)NS(C)(=O)=O)ccc2Oc2ccc(Cl)cc2)cn1 [Example 38, 4-(4-chlorophenoxy)-3-(6-methylpyridin-3-yl)-N-(methylsulfonyl)benzamide] | > 3 µM
CS(=O)(=O)NC(=O)c1ccc(Oc2ccc(Cl)cc2)c(-c2ccc(C#N)nc2)c1 [Example 39, 4-(4-chlorophenoxy)-3-(6-cyanopyridin-3-yl)-N-(methylsulfonyl)benzamide] | 1.1 µM
CCCn1cc(-c2cc(C(=O)NS(C)(=O)=O)ccc2Oc2ccc(Cl)cc2)cn1 [Example 41, 4-(4-chlorophenoxy)-N-(methylsulfonyl)-3-(1-propyl-1H-pyrazol-4-yl)benzamide] | > 3 µM

Further compounds by falling IC50, results first:

IC50 | Structure (SMILES)
0.82 µM | CCOc1cccc(-c2cc(C(=O)NS(C)(=O)=O)ccc2Oc2ccc(Cl)cc2)c1 [Example 20, 6-(4-chlorophenoxy)-3′-ethoxy-N-(methylsulfonyl)-biphenyl-3-carboxamide]
0.57 µM | CS(=O)(=O)NC(=O)c1ccc(Oc2ccc(Cl)cc2)c(-c2ccccc2F)c1 [Example 18, 6-(4-chlorophenoxy)-2′-fluoro-N-(methylsulfonyl)-biphenyl-3-carboxamide]
0.57 µM | COc1cccc(-c2cc(C(=O)NS(C)(=O)=O)ccc2Oc2ccc(Cl)cc2)c1 [Example 29, 6-(4-chlorophenoxy)-3′-methoxy-N-(methylsulfonyl)-biphenyl-3-carboxamide]
0.5 µM | CS(=O)(=O)NC(=O)c1ccc(Oc2ccc(Cl)cc2)c(-c2ccccc2OC(F)(F)F)c1 [Example 24, 6-(4-chlorophenoxy)-N-(methylsulfonyl)-2′-(trifluoromethoxy)biphenyl-3-carboxamide]
0.34 µM | CS(=O)(=O)NC(=O)c1ccc(Oc2ccc(Cl)cc2)c(-c2ccc(Cl)cn2)c1 [Example 37, 4-(4-chlorophenoxy)-3-(5-chloropyridin-2-yl)-N-(methylsulfonyl)benzamide]
0.29 µM | CS(=O)(=O)NC(=O)c1ccc(Oc2ccc(Cl)cc2)c(-c2ccccc2C#N)c1 [Example 33, 6-(4-chlorophenoxy)-2′-cyano-N-(methylsulfonyl)-biphenyl-3-carboxamide]
0.27 µM | CS(=O)(=O)NC(=O)c1ccc(Oc2ccc(Cl)cc2)c(-c2ccccc2Cl)c1 [Example 31, 2′-chloro-6-(4-chlorophenoxy)-N-(methylsulfonyl)-biphenyl-3-carboxamide]
0.18 µM | COc1ccccc1-c1cc(C(=O)NS(C)(=O)=O)ccc1Oc1ccc(Cl)cc1 [Example 15, 6-(4-chlorophenoxy)-2′-methoxy-N-(methylsulfonyl)-biphenyl-3-carboxamide]
0.12 µM | CCOc1ccccc1-c1cc(C(=O)NS(C)(=O)=O)ccc1Oc1ccc(Cl)cc1 [Example 32, 6-(4-chlorophenoxy)-2′-ethoxy-N-(methylsulfonyl)-biphenyl-3-carboxamide]
0.11 µM | CS(=O)(=O)NC(=O)c1ccc(Oc2ccc(Cl)cc2)c(-c2ccc(F)cc2)c1 [Example 9, 6-(4-Chlorophenoxy)-4′-fluoro-N-(methylsulfonyl)biphenyl-3-carboxamide]
0.066 µM | COc1ncccc1-c1cc(C(=O)NS(C)(=O)=O)ccc1Oc1cnc(OC(C)C)c(Cl)c1 [Example 7, 4-[(5-Chloro-6-isopropoxypyridin-3-yl)oxy]-3-(2-methoxypyridin-3-yl)-N-(methylsulfonyl)benzamide]
0.049 µM | CCOc1ncccc1-c1cc(C(=O)NS(C)(=O)=O)ccc1Oc1ccc(Cl)cc1 [Example 8, 4-(4-Chlorophenoxy)-3-(2-ethoxypyridin-3-yl)-N-(methylsulfonyl)benzamide]
